# Source: PubChem BioAssay (NCI)
#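 Exposure lasted 48 hours, with cells grown in 96-well plates and compounds tested at five concentrations. The concentration for full growth arrest is given as TGI.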
# Columns and labels:
# Assay in all cases: inhibition of tumour cell growth, NCI panel, 48 h
# [1] = system: 786-0 renal
# [2] = system: CCRF-CEM leukemia
# [3] = system: COLO 205 colon
# [4] = system: HL-60(TB) leukemia
# [5] = system: MDA-MB-435
# [6] = system: NCI-H226 lung
# [7] = system: NCI-H522 lung
# [8] = system: OVCAR-8 ovarian
# [9] = system: PC-3 prostate
# [10] = system: SK-MEL-2 melanoma
# [11] = system: SK-OV-3 ovarian
# [12] = system: SN12C renal
# [13] = system: SNB-19 CNS
# [14] = system: SR leukemia
# [15] = system: SW-620 colon
# [16] = system: UO-31 renal
# [17] = system: HOP-62 NSCLC
# [18] = system: OVCAR-3 ovarian
# [19] = system: OVCAR-5 ovarian
Compound,TGI [1] [µM],TGI [2] [µM],TGI [3] [µM],TGI [4] [µM],TGI [5] [µM],TGI [6] [µM],TGI [7] [µM],TGI [8] [µM],TGI [9] [µM],TGI [10] [µM],TGI [11] [µM],TGI [12] [µM],TGI [13] [µM],TGI [14] [µM],TGI [15] [µM],TGI [16] [µM],TGI [17] [µM],TGI [18] [µM],TGI [19] [µM]
Nc1cc([N+](=O)[O-])ccc1C(=O)N1CCC[C@H]1CO,> 100,> 100,> 100,> 100,> 100,> 100,> 100,> 100,> 100,> 100,> 100,> 100,> 100,> 100,> 100,> 100,,,
CC1C2CC(C(S(=O)(=O)O)C2=O)C1(C)C (centres undefined),> 100,> 100,> 100,> 100,> 100,> 100,> 100,> 100,> 100,,> 100,> 100,> 100,> 100,> 100,> 100,> 100,> 100,> 100
CC(=O)OCC1OC(N2C(C)=C(C(C)=O)C(c3ccc(Cl)cc3)C(C#N)=C2S)C(OC(C)=O)C(OC(C)=O)C1OC(C)=O (centres undefined),> 100,> 100,35.6,> 100,> 100,> 100,> 100,> 100,> 100,> 100,,> 100,> 100,> 100,> 100,88.8,> 100,> 100,> 100
CSc1c(C(=O)Nc2ccccc2)c(N)n(N)c(=O)c1C#N,> 100,> 100,> 100,> 100,> 100,> 100,> 100,> 100,> 100,> 100,> 100,> 100,> 100,> 100,> 100,> 100,,> 100,> 100
CCCCCCNCCc1cnc[nH]1,> 100,> 100,> 100,,> 100,> 100,> 100,> 100,> 100,> 100,> 100,> 100,> 100,> 100,> 100,> 100,> 100,> 100,> 100
COC1(OC)N=C(N)C2(C#N)C(c3ccccc3)NC3=C(CCC3)C12C#N (centres undefined),> 100,> 100,> 100,> 100,> 100,> 100,> 100,> 100,> 100,> 100,> 100,> 100,> 100,> 100,> 100,> 100,> 100,,> 100
CC[C@@H](C)[C@H](NC(=O)[C@H](Cc1ccccc1)NCC(F)(F)F)C(=O)OC(C)(C)C,> 100,> 100,> 100,> 100,> 100,> 100,> 100,> 100,> 100,,> 100,> 100,> 100,> 100,> 100,> 100,> 100,> 100,> 100
N[C@@H]1CCN(c2c(F)cc3c(=O)c(C(=O)O)cn4c3c2Oc2c-4ccc3c2ccc2ccccc23)C1,39.6,,> 100,> 100,> 100,> 100,> 100,> 100,> 100,> 100,> 100,> 100,10.4,> 100,> 100,> 100,> 100,> 100,> 100
O=C1/C(=C\c2ccc([N+](=O)[O-])cc2)N(S(=O)(=O)c2ccccc2)c2ncccc21,37.1,> 100,56.8,5.4,47.2,83.5,54.4,70.2,33.4,,19.8,50.2,65,20.8,34.2,38.2,46.2,31.3,
ONC1=Nc2cc(Cl)ccc2C(=S)N2CSCC12 (centres undefined),> 100,> 100,> 100,,> 100,> 100,> 100,> 100,> 100,> 100,> 100,> 100,> 100,> 100,> 100,> 100,> 100,> 100,> 100
COc1ccc2c(c1)CN1C(=N2)CSC1c1cccc(Br)c1 (centres undefined),42.8,,> 100,22.3,> 100,61.2,> 100,> 100,> 100,> 100,> 100,62.6,> 100,> 100,> 100,> 100,> 100,,> 100
CCOC(=O)c1ccc(N=C/C=C(\Nc2ccc(C(=O)OCC)cc2)C23CC4CC(CC(C4)C2)C3)cc1,> 100,,> 100,> 100,> 100,> 100,> 100,> 100,> 100,> 100,> 100,> 100,> 100,> 100,> 100,> 100,> 100,> 100,> 100
COc1ccc(CC2COc3cc(OC)cc(OC)c3C2=O)cc1 (centres undefined),51.7,,31.1,> 100,18.1,,87,83.3,> 100,> 100,56.6,> 100,> 100,43.2,> 100,> 100,97.1,46.5,76.4
